Experiments:
[1] = Human Liver Microsomal Stability (Test C); type: in vitro ADME; conditions: human, liver microsomes
Outline: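 CLint (μl/min/mg protein) derived from compound depletion in human liver microsomes following a published standardized early-DMPK protocol; replicate determinations given as arithmetic mean.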

[2] = Human Plasma Protein Binding (Test B); type: in vitro ADME; conditions: fraction unbound (fu)
Outline: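 Values given as % free (fu) in human plasma, using the method of Wernevik et al. (2020). For compounds tested more than once, the arithmetic mean is given.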

Row | microsomal CLint [1] [µL/min/mg] | Test B Human Plasma Protein Binding (% free) [2] [% free] | SMILES
1 | 7.2 | 0.060 | COc1cc(F)c(-c2ccc(C(=O)O)cc2)cc1C(=O)N[C@H]1[C@@H](C(=O)Nc2cccc(S(=O)(=O)C(F)(F)F)c2)[C@@H]2C=C[C@H]1C2 (single isomer, unassigned) [Example 552]
2 | 43 | 0.38 | COc1cc(F)c(O[C@H]2CC[C@@H](C(=O)O)CC2)cc1C(=O)N[C@@H]1[C@H]2CC[C@H](C2)[C@@H]1C(=O)Nc1ccc(F)c(S(F)(F)(F)(F)F)c1 [Example 433]
3 | 61 | <0.23 | COc1cc(F)c(O[C@H]2CC[C@@](C)(C(=O)O)CC2)cc1C(=O)N[C@@H]1[C@H]2CC[C@H](C2)[C@@H]1C(=O)Nc1ccc(F)c(S(F)(F)(F)(F)F)c1 [Example 353]
4 | 54 | 1 | COc1cc(F)c(O[C@H]2CC[C@@](C)(C(=O)O)CC2)cc1C(=O)N[C@@H]1[C@H]2CC[C@H](C2)[C@@H]1C(=O)Nc1cccc(S(=O)(=O)C(F)(F)F)c1 [Example 208, (1S,4s)-4-(2-Fluoro-4-methoxy-5-(((1S,2R,3S,4R)-3-((3-((trifluoromethyl)sulfonyl)phenyl)carbamoyl)bicyclo[2.2.1]heptan-2-yl)carbamoyl)phenoxy)-1-methylcyclohexane-1-carboxylic acid]
